# In ChEMBL document CHEMBL1687695, “Thermodynamic and Structural Effects of Macrocyclization as a Constraining Method in Protein-Ligand Interactions” (ACS Med Chem Lett, 2010):
# Numbered stars: 1 amine (or outer) side, 2 acyl side, 3 side chain; on linkers, the order of the positions; unused ones are H or OH. Square brackets hold non-standard residues; d marks the D form. Peptide text beside a SMILES is read from it. * marks the point of attachment. pY = N[C@@H](Cc1ccc(OP(=O)(O)O)cc1)C(=O)O; NH(CH2)9CO = O=C(CCCCCCCCCN[*:1])[*:2]; Nonanoyl = CCCCCCCCC(=O)*; Hexanoyl = CCCCCC(=O)*; Ahp = NCCCCCCC(=O)O
# Assay: Association constant Ka of the compound
# Assay type: physicochemical
row,Ka,Compound
1,2.3 ×10⁶ /M,CC(C)[C@@H]1NC(=O)[C@H](CC(N)=O)NC(=O)[C@H](C(C)C)NC(=O)[C@H](Cc2ccc(OP(=O)(O)O)cc2)NC(=O)CCCCCCNC1=O (cyclo([Ahp][pY]VNV))
2,4.7 ×10⁴ /M,CC(C)[C@@H]1NC(=O)[C@H](Cc2ccc(OP(=O)(O)O)cc2)NC(=O)CCCCCCNC(=O)CNC(=O)[C@H](CC(N)=O)NC1=O (cyclo([Ahp][pY]VNG))
3,4.1 ×10⁵ /M,CCCCCC(=O)N[C@@H](Cc1ccc(OP(=O)(O)O)cc1)C(=O)N[C@H](C(=O)N[C@@H](CC(N)=O)C(=O)NCC(=O)NC)C(C)C (Hexanoyl-[pY]VNG-NHMe)

# More lines, now with the values behind:
row,Compound,Ka
1,CCCCCC(=O)N[C@@H](Cc1ccc(OP(=O)(O)O)cc1)C(=O)N[C@H](C(=O)N[C@@H](CC(N)=O)C(=O)N[C@H](C(=O)N1CCC[C@H]1C(=O)NC)C(C)C)C(C)C (Hexanoyl-[pY]VNVP-NHMe),6.5 ×10⁶ /M
2,CCCCCCCCC(=O)N[C@@H](Cc1ccc(OP(=O)(O)O)cc1)C(=O)N[C@H](C(=O)N[C@@H](CC(N)=O)C(=O)NCC(=O)NC)C(C)C (Nonanoyl-[pY]VNG-NHMe),5.7 ×10⁵ /M
3,CC(C)[C@@H]1NC(=O)[C@H](Cc2ccc(OP(=O)(O)O)cc2)NC(=O)CCCCCCCCCNC(=O)CNC(=O)[C@H](CC(N)=O)NC1=O (cyclo(G[NH(CH2)9CO][pY]VN)),8.5 ×10⁵ /M
4,CC(C)[C@@H]1NC(=O)[C@H](Cc2ccc(OP(=O)(O)O)cc2)NC(=O)CCCCCCNC(=O)[C@@H]2CCCN2C(=O)[C@H](C(C)C)NC(=O)[C@H](CC(N)=O)NC1=O (cyclo([Ahp][pY]VNVP)),1 ×10⁷ /M
5,CCCCCC(=O)N[C@@H](Cc1ccc(OP(=O)(O)O)cc1)C(=O)N[C@H](C(=O)N[C@@H](CC(N)=O)C(=O)N[C@H](C(=O)NC)C(C)C)C(C)C (Hexanoyl-[pY]VNV-NHMe),2.3 ×10⁶ /M
